Results reported in ChEMBL document CHEMBL1139649, “Hetaryl imidazoles: a novel dual inhibitors of VEGF receptors I and II” (Bioorg Med Chem Lett, 2006).
pIC50: −log10 of the molar value.

target: Receptor tyrosine-protein kinase erbB-2 (Homo sapiens) (UniProt P04626); test: […] against ErbB2 at 10 uM by HTRF method

Activity | SMILES
< 30% | Cn1cnc(NCc2ccncc2)c1-c1nnc(Nc2ccc(C(F)(F)F)cc2)o1
< 30% | COc1ccc(Nc2nnc(-c3c(NCc4ccncc4)ncn3C)o2)cc1OC
< 30% | Cn1cnc(NCc2ccncc2)c1-c1nnc(Nc2ccc(OC(F)(F)F)cc2)o1

system: not listed separately; test: Solubility in water; assay type: physicochemical

solubility | SMILES
> 5 mM | Cn1cnc(NCc2ccncc2)c1-c1nnc(Nc2ccc(C(F)(F)F)cc2)o1
> 5 mM | COc1ccc(Nc2nnc(-c3c(NCc4ccncc4)ncn3C)o2)cc1OC
> 5 mM | Cn1cnc(NCc2ccncc2)c1-c1nnc(Nc2ccc(OC(F)(F)F)cc2)o1

target: T1, Ephrin type-B receptor 4 (Homo sapiens) (UniProt P54760); test: Percent inhibition against EphB4 at 10 uM by HTRF method; set-up: scale not given: the % may be the effect or the level left
T1 sequence (whole entry): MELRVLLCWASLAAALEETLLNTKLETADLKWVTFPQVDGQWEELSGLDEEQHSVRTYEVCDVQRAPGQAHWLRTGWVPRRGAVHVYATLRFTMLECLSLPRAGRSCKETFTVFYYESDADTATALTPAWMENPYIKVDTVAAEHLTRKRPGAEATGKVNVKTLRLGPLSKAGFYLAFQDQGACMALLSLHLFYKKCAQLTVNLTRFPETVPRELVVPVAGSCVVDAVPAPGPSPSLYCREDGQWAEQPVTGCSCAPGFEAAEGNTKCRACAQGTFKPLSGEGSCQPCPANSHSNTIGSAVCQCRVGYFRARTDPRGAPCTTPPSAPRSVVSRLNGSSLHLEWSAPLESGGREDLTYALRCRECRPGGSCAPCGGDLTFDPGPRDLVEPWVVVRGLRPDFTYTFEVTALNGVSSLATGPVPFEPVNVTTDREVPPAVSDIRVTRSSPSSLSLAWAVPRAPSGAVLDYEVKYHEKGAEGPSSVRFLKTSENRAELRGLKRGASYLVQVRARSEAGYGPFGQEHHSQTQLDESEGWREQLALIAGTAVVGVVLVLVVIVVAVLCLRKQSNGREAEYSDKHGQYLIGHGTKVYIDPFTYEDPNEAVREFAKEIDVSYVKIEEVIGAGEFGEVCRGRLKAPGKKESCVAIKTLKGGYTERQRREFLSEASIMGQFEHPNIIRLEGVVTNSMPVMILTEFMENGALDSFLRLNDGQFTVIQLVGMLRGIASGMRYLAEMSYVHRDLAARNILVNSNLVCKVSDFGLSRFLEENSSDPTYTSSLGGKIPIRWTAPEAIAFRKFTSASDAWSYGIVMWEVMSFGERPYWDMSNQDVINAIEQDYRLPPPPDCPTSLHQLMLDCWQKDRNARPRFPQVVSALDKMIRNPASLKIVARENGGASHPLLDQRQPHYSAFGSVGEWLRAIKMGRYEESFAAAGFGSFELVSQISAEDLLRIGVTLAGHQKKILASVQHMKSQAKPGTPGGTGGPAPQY

Activity | SMILES
< 30% | Cn1cnc(NCc2ccncc2)c1-c1nnc(Nc2ccc(C(F)(F)F)cc2)o1
< 30% | COc1ccc(Nc2nnc(-c3c(NCc4ccncc4)ncn3C)o2)cc1OC
< 30% | Cn1cnc(NCc2ccncc2)c1-c1nnc(Nc2ccc(OC(F)(F)F)cc2)o1

target: T2, Vascular endothelial growth factor receptor 2 (Homo sapiens, UniProt P35968); test: Inhibition of VEGFR2 in 293 adenovirus transfected kidney cells by cell-based ELISA assay
T2 sequence (P35968 whole entry): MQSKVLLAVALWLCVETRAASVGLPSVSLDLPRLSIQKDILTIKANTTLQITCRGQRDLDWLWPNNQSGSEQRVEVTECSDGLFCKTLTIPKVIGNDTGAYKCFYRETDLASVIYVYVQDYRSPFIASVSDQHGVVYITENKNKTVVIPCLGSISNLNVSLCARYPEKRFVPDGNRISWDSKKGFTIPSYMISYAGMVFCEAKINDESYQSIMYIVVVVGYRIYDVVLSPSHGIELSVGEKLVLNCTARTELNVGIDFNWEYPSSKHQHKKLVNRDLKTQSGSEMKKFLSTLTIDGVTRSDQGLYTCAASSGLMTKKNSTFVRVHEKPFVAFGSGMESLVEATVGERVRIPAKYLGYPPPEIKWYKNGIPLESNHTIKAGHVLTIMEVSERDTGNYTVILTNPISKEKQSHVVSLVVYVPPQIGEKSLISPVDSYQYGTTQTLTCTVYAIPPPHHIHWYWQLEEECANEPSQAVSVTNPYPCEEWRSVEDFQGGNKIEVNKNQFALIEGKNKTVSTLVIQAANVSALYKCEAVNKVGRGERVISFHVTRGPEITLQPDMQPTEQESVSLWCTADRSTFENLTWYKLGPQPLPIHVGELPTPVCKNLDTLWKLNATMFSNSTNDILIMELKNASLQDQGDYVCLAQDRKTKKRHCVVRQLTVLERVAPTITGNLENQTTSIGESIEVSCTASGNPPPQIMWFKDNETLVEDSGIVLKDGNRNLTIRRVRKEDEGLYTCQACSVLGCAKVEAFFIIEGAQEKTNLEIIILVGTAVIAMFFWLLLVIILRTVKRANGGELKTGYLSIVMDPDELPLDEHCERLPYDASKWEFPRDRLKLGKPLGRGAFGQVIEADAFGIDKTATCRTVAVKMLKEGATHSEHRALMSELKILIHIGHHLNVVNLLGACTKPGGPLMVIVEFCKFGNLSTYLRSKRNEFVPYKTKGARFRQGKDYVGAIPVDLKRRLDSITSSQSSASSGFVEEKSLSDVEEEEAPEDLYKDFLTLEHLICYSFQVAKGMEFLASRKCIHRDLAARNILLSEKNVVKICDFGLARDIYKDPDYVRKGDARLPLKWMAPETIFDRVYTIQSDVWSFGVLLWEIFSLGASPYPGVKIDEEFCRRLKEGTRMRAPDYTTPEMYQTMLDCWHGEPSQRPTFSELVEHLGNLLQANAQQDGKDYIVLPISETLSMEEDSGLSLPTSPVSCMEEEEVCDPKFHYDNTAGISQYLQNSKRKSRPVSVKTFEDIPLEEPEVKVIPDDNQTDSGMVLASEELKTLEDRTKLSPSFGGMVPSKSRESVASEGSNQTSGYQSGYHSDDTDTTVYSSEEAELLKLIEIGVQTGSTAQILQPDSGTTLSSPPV

pIC50 | SMILES
7.09 | Cn1cnc(NCc2ccncc2)c1-c1nnc(Nc2ccc(C(F)(F)F)cc2)o1
7.03 | COc1ccc(Nc2nnc(-c3c(NCc4ccncc4)ncn3C)o2)cc1OC
7.18 | Cn1cnc(NCc2ccncc2)c1-c1nnc(Nc2ccc(OC(F)(F)F)cc2)o1

target: RAC-alpha serine/threonine-protein kinase (Homo sapiens) (UniProt P31749); test: […] against PKB/Akt at 10 uM by HTRF method

Activity | SMILES
< 30% | Cn1cnc(NCc2ccncc2)c1-c1nnc(Nc2ccc(C(F)(F)F)cc2)o1
< 30% | COc1ccc(Nc2nnc(-c3c(NCc4ccncc4)ncn3C)o2)cc1OC
< 30% | Cn1cnc(NCc2ccncc2)c1-c1nnc(Nc2ccc(OC(F)(F)F)cc2)o1

target: Vascular endothelial growth factor receptor 1 (Homo sapiens, UniProt P17948); test: Inhibition of VEGFR1 by enzymatic assay
Sequence (P17948 whole entry): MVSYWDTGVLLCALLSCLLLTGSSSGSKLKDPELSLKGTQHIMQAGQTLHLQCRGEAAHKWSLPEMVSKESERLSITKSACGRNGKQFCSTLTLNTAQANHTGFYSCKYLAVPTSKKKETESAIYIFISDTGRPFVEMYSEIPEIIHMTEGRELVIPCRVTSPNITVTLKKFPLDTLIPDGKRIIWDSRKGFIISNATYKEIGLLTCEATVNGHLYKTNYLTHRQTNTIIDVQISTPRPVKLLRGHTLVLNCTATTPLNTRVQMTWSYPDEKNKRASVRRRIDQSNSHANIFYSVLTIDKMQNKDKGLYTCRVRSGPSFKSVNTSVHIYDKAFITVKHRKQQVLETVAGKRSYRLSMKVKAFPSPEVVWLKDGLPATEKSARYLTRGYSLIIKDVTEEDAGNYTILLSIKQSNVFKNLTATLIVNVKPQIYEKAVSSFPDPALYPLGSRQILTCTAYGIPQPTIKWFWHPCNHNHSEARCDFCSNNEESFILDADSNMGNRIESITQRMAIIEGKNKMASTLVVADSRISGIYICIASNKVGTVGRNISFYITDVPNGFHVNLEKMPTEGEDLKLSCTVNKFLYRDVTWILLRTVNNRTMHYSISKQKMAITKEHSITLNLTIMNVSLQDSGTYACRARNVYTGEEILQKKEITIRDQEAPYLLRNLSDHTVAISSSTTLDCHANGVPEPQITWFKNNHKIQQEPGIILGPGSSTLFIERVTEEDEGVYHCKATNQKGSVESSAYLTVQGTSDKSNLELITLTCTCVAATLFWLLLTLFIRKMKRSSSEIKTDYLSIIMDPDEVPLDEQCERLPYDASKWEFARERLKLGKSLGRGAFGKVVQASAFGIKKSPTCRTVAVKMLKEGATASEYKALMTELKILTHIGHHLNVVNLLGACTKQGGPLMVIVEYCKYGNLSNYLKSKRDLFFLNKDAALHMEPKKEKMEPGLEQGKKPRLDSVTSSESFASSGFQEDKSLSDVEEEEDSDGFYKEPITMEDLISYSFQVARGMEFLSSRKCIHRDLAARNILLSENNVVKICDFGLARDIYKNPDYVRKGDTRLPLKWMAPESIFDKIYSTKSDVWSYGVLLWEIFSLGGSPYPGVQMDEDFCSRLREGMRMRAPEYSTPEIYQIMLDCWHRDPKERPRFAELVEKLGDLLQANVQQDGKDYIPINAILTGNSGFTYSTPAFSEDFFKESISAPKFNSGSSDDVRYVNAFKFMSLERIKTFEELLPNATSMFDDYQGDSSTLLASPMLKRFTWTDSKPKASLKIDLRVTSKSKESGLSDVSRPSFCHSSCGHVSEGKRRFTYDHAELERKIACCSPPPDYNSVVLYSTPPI

pIC50 | SMILES
6.92 | Cn1cnc(NCc2ccncc2)c1-c1nnc(Nc2ccc(C(F)(F)F)cc2)o1
6.23 | COc1ccc(Nc2nnc(-c3c(NCc4ccncc4)ncn3C)o2)cc1OC
6.80 | Cn1cnc(NCc2ccncc2)c1-c1nnc(Nc2ccc(OC(F)(F)F)cc2)o1

target: Hepatocyte growth factor receptor (Homo sapiens) (UniProt P08581); test: Percent inhibition against c-Met at 10 uM by HTRF method; set-up: scale not given: the % may be the effect or the level left

Activity | SMILES
< 30% | Cn1cnc(NCc2ccncc2)c1-c1nnc(Nc2ccc(C(F)(F)F)cc2)o1
< 30% | COc1ccc(Nc2nnc(-c3c(NCc4ccncc4)ncn3C)o2)cc1OC
< 30% | Cn1cnc(NCc2ccncc2)c1-c1nnc(Nc2ccc(OC(F)(F)F)cc2)o1

target: Epidermal growth factor receptor (Homo sapiens) (UniProt P00533); test: […] against ErbB1 at 10 uM by HTRF method
Sequence (P00533 whole entry): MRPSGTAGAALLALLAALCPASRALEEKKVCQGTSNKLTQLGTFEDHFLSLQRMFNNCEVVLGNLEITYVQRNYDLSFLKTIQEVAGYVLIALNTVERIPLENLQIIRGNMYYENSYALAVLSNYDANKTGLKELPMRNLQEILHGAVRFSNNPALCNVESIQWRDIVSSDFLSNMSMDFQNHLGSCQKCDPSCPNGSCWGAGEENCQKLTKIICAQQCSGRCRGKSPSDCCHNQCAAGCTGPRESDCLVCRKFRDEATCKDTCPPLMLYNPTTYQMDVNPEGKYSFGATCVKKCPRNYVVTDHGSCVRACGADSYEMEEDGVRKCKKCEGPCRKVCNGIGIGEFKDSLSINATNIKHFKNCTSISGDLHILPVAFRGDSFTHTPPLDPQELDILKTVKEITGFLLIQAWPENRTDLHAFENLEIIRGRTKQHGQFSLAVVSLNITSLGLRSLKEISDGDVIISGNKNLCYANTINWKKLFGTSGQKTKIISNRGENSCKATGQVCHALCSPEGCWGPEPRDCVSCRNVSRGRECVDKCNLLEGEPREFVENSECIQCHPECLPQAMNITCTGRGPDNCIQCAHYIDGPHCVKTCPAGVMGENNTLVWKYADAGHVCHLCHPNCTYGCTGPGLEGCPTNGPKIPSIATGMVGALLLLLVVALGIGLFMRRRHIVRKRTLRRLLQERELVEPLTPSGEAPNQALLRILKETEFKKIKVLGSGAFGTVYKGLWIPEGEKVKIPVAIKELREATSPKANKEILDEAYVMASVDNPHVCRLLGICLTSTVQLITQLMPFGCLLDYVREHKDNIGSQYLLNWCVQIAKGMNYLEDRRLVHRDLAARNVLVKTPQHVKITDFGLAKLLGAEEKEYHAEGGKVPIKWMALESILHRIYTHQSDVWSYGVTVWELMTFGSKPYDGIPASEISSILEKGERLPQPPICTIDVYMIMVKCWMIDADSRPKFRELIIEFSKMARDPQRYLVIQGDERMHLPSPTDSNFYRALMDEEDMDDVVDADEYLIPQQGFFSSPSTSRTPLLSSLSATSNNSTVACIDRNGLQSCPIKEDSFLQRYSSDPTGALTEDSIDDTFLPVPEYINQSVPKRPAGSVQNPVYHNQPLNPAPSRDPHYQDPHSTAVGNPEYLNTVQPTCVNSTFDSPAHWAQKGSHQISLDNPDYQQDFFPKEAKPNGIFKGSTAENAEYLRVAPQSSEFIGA

Percent inhibition | SMILES
< 30% | Cn1cnc(NCc2ccncc2)c1-c1nnc(Nc2ccc(C(F)(F)F)cc2)o1
< 30% | COc1ccc(Nc2nnc(-c3c(NCc4ccncc4)ncn3C)o2)cc1OC
< 30% | Cn1cnc(NCc2ccncc2)c1-c1nnc(Nc2ccc(OC(F)(F)F)cc2)o1

target: Fibroblast growth factor receptor 1 (Homo sapiens) (UniProt P11362); test: Percent inhibition against FGFR1 at 10 uM by HTRF method; set-up: scale not given: the % may be the effect or the level left

Activity | SMILES
< 30% | Cn1cnc(NCc2ccncc2)c1-c1nnc(Nc2ccc(C(F)(F)F)cc2)o1
< 30% | COc1ccc(Nc2nnc(-c3c(NCc4ccncc4)ncn3C)o2)cc1OC
< 30% | Cn1cnc(NCc2ccncc2)c1-c1nnc(Nc2ccc(OC(F)(F)F)cc2)o1

target: Cyclin-dependent kinase 5 (Homo sapiens) (UniProt Q00535); test: […] against Cdk5 at 10 uM by HTRF method

Activity | SMILES
< 30% | Cn1cnc(NCc2ccncc2)c1-c1nnc(Nc2ccc(C(F)(F)F)cc2)o1
< 30% | COc1ccc(Nc2nnc(-c3c(NCc4ccncc4)ncn3C)o2)cc1OC
< 30% | Cn1cnc(NCc2ccncc2)c1-c1nnc(Nc2ccc(OC(F)(F)F)cc2)o1

target: Glycogen synthase kinase-3 beta (Homo sapiens) (UniProt P49841); test: Inhibition against GSK3-beta at 10 uM by HTRF method; set-up: scale not given: the % may be the effect or the level left

Activity | SMILES
< 30% | Cn1cnc(NCc2ccncc2)c1-c1nnc(Nc2ccc(C(F)(F)F)cc2)o1
< 30% | COc1ccc(Nc2nnc(-c3c(NCc4ccncc4)ncn3C)o2)cc1OC
< 30% | Cn1cnc(NCc2ccncc2)c1-c1nnc(Nc2ccc(OC(F)(F)F)cc2)o1

target: cAMP-dependent protein kinase (PKA) (Homo sapiens) (UniProt P22694+P17612+P22612); test: Inhibition against PKA at 10 uM by HTRF method; assay type: protein assay; set-up: scale not given: the % may be the effect or the level left

Activity | SMILES
< 30% | Cn1cnc(NCc2ccncc2)c1-c1nnc(Nc2ccc(C(F)(F)F)cc2)o1
< 30% | COc1ccc(Nc2nnc(-c3c(NCc4ccncc4)ncn3C)o2)cc1OC
< 30% | Cn1cnc(NCc2ccncc2)c1-c1nnc(Nc2ccc(OC(F)(F)F)cc2)o1

target: Bcr/Abl fusion protein (Homo sapiens) (UniProt P00519+P11274); test: Inhibition of bcr-Abl at 10 uM by HTRF method; assay type: protein assay; set-up: scale not given: the % may be the effect or the level left

Activity | SMILES
< 30% | Cn1cnc(NCc2ccncc2)c1-c1nnc(Nc2ccc(C(F)(F)F)cc2)o1
< 30% | COc1ccc(Nc2nnc(-c3c(NCc4ccncc4)ncn3C)o2)cc1OC
< 30% | Cn1cnc(NCc2ccncc2)c1-c1nnc(Nc2ccc(OC(F)(F)F)cc2)o1

target: Cyclin-dependent kinase 2 (Homo sapiens) (UniProt P24941); test: […] against Cdk2 at 10 uM by HTRF method

Percent inhibition | SMILES
< 30% | Cn1cnc(NCc2ccncc2)c1-c1nnc(Nc2ccc(C(F)(F)F)cc2)o1
< 30% | COc1ccc(Nc2nnc(-c3c(NCc4ccncc4)ncn3C)o2)cc1OC
< 30% | Cn1cnc(NCc2ccncc2)c1-c1nnc(Nc2ccc(OC(F)(F)F)cc2)o1

target: Receptor-type tyrosine-protein kinase FLT3 (Homo sapiens) (UniProt P36888); test: Inhibition of Flt3 at 10 uM by HTRF method; set-up: scale not given: the % may be the effect or the level left
Sequence (P36888 whole entry): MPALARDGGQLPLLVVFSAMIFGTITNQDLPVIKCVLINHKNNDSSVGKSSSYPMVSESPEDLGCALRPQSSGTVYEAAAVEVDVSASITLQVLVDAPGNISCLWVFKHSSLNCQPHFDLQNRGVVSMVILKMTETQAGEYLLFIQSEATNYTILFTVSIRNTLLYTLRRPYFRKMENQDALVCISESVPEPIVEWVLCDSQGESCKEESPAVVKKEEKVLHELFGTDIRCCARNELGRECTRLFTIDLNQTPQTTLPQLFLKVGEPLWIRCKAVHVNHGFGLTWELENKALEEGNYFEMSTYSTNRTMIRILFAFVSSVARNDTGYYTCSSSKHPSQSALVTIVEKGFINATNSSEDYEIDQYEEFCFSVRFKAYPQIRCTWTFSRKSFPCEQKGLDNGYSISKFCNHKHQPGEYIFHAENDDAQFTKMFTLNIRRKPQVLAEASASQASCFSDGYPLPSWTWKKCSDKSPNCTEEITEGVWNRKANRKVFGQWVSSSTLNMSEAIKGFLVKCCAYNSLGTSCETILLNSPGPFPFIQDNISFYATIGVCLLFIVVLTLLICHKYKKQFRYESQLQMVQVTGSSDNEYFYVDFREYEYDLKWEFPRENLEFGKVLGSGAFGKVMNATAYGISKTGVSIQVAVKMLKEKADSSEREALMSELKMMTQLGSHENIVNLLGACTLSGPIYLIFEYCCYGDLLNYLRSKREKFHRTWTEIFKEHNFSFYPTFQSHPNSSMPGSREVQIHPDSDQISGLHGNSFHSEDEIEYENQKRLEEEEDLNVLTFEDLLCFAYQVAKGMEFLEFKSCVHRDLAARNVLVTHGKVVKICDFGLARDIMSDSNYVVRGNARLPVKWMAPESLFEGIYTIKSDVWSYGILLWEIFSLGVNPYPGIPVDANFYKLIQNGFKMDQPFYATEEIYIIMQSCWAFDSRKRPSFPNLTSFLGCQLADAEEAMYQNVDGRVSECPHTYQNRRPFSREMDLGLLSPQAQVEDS

Activity | SMILES
< 30% | Cn1cnc(NCc2ccncc2)c1-c1nnc(Nc2ccc(C(F)(F)F)cc2)o1
< 30% | COc1ccc(Nc2nnc(-c3c(NCc4ccncc4)ncn3C)o2)cc1OC
< 30% | Cn1cnc(NCc2ccncc2)c1-c1nnc(Nc2ccc(OC(F)(F)F)cc2)o1

target: T2, Vascular endothelial growth factor receptor 2; test: Inhibition of VEGFR2 by enzymatic assay

pIC50 | SMILES
7.14 | Cn1cnc(NCc2ccncc2)c1-c1nnc(Nc2ccc(C(F)(F)F)cc2)o1
7.28 | COc1ccc(Nc2nnc(-c3c(NCc4ccncc4)ncn3C)o2)cc1OC
7.03 | Cn1cnc(NCc2ccncc2)c1-c1nnc(Nc2ccc(OC(F)(F)F)cc2)o1

target: Insulin-like growth factor 1 receptor (Homo sapiens) (UniProt P08069); test: […] against IGF1R at 10 uM by HTRF method

Activity | SMILES
< 30% | Cn1cnc(NCc2ccncc2)c1-c1nnc(Nc2ccc(C(F)(F)F)cc2)o1
< 30% | COc1ccc(Nc2nnc(-c3c(NCc4ccncc4)ncn3C)o2)cc1OC
< 30% | Cn1cnc(NCc2ccncc2)c1-c1nnc(Nc2ccc(OC(F)(F)F)cc2)o1
